Where a name gives a salt, the structure may show the parent alone. Read-outs that look alike come from different tables or passages of the source.
Experiments:
CTX-M15 β-lactamase = target: T1, CTX-M15 β-lactamase (Escherichia coli, UniProt Q9EXV5); test: β-lactamase enzyme inhibition assay (nitrocefin substrate), CTXM-15; assay type: biochemical
T1 construct: expressed as native untagged proteins; made in house; host or cells: E. coli BL21(DE3)
Method: (§1) Isolation of β-lactamases. For SHV-5, p99 AmpC, KPC-2 and CTX-M15 β-lactamases, E. coli BL21(DE3) bacterial cells carrying expression plasmids (expressed as native untagged proteins) for the individual β-lactamases were grown in 1 L of Superbroth (Teknova Inc. Hollister, Calif.) supplemented with 100 μg/ml kanamycin and 1×5052 (0.5% glycerol, 0.05% glucose and 0.2% α-lactose) at 35° C. for 18-20 hours. Cells were harvested by centrifugation (4,000×g, 4° C., 20 min), and resuspended in 50 ml of 10 mM HEPES pH 7.5 (1/20 of the initial volume). The cells were lysed by sonication (5 pulses of 45 seconds) at 45 W on ice. The lysates were clarified by centrifugation at 10,000×g for 40 minutes at 4° C. Samples were diluted 5-fold in 50 mM sodium acetate pH 5.0, stored overnight at 4° C., after which they were centrifuged at 10,000×g for 30 minutes to clarify, and filtered through 0.45 μm filters. The samples were loaded onto a 5 ml Capto S sepharose cation exchange column (GE Healthcare) pre-equilibrated with 50 mM sodium acetate pH 5.0. The column was washed with 5 column volumes of 50 mM sodium acetate pH 5.0 to wash out unbound protein and a linear gradient of NaCl (0 to 500 mM) was used to elute the protein (over 16 CV) from the column. Fractions were assayed for β-lactamase activity using Centa (Calbiochem, Gibbstown, N.J.) as a reporter β-lactamase substrate for activity in the isolated fractions. Active fractions were pooled, concentrated and further purified by gel filtration chromatography on a Superdex 75 prep grade gel filtration column (GE Healthcare, Piscataway, N.J.) pre-equilibrated in 50 mM Hepes pH 7.5, 150 mM NaCl. Active fractions were pooled concentrated, quantitated by BCA protein determination (Thermo Scientific, Rockford, Ill.), and frozen at −80° C. in 20% glycerol until use.
(§2) β-lactamase Inhibition. To determine the level of inhibition of β-lactamase enzymes, compounds were diluted in PBS at pH 7.0 to yield concentrations between 100 and 0.005 μM in microtiter plates. An equal volume of diluted enzyme stock was added, and the plates were incubated at 37° C. for 10 min. Nitrocefin solution was then dispensed as substrate into each well at a final concentration of 100 μM, and the plates were immediately read with the kinetic program at 486 nm for 10 min on the SPECTRAMAX® Plus^384 (high-throughput microplate spectrophotometer; Molecular Devices Corp., Sunnyvale, Calif.). Maximum rates of metabolism were then compared to those in control wells (without inhibitors), and percentages of enzyme inhibition were calculated for each concentration of inhibitor. The concentration of inhibitor needed to reduce the initial rate of hydrolysis of substrate by 50% (IC50) was calculated as the residual activity of β-lactamase at 486 nm using the SoftMax Pro 5.0 software (Molecular Devices Corp.).
(§3) Using the methodology described above, examples of the current invention were evaluated for their ability to inhibit β-lactamase enzymes. The results of these assays are summarized in Table 2 for representative enzymes across different subtypes (note SHV-5 and CTXM-15 exemplify different subclasses of Ambler Class A Extended Spectrum Beta Lactamases, KPC-2 exemplifies Class A carbapenemases, P99 represents chromosomal Class C AmpC, VIM-2 exemplifies subclass B1 of metallo-β-lactamases, and OXA-23 represents chromosome-encoded Class D oxacillin-hydrolyzing β-lactamases), NT=not tested.

[1] = test system: E. cloacae expressing the Class C P99+; test: In vitro antibacterial assay of β-lactamase inhibition (broth microdilution MIC), E. cloacae P99+; assay type: cell-based
Excerpt: (§4) To determine the ability of test compounds to potentiate the inhibition of the growth of bacterial strains producing beta-lactamase enzymes, classic cell based screening assays were employed. Five bacteria strains producing beta-lactamase enzymes were used: K. pneumoniae expressing the Class A Extended Spectrum Beta-Lactamase (ESBL) CTX-M-15, E. coli expressing the Class A ESBL SHV-5, E. cloacae expressing the Class C P99+, K. pneumoniae expressing the Class A carbapenemase KPC-2, and P. aeruginosa expressing the Class B metallo β-lactamase VIM-2. In order to evaluate the ability of test compounds to inhibit beta-lactamase activity, Applicants used a modification of the broth microdilution assay. The assay was conducted in Cation Adjusted Mueller Hinton Broth (CAMHB, BD # 212322, BD Diagnostic Systems, Sparks, Md.). Bacteria strains were grown for 3-5 hours in CAMBH broth. All five strains were grown in presence of 50 μg/mL ampicillin to ensure resistance is maintained. In the meantime, test compounds were diluted in DMSO to a 0.1 mg/mL stock. The compounds were added to a microtiter plate and were diluted in 2-fold serial dilutions in CAMHB in a final concentration range of 8 μg/mL to 0.015 μg/ml. […] Each of these compound plates are made in quadruplicate, one for each bacteria strain. In addition to the titration of test compounds the MICs of a panel of cephalosporins is also tested to ensure the strains are behaving consistently from test to test. Once the test compound and cephalosporin are added the plates can be inoculated. Inocula are conducted according to CLSI broth microdilution method. After inoculation the plates are incubated for 16-20 hours at 37° C. then the Minimal Inhibitory Concentration (MIC) of the test compound is determined visually.
(§5) Using the methodology described above, examples of the current invention were evaluated for their ability to inhibit the growth of β-lactamase producing bacteria in the presence of a β-lactam antibiotic.

[2] = test system: P. aeruginosa expressing the Class B metallo β-lactamase VIM-2; test: In vitro antibacterial assay of β-lactamase inhibition (broth microdilution MIC), P. aeruginosa VIM-2; assay type: cell-based; conditions: in presence of Ceftazidime 16 μg/mL (Examples 1-56)
Excerpt: as §4, §5

[3] = test system: K. pneumoniae expressing the Class A Extended Spectrum Beta-Lactamase (ESBL) CTX-M-15; test: In vitro antibacterial assay of β-lactamase inhibition (broth microdilution MIC), K. pneumoniae CTX-M-15; assay type: cell-based
Excerpt: as §4, §5

[4] = test system: E. coli expressing the Class A ESBL SHV-5; test: In vitro antibacterial assay of β-lactamase inhibition (broth microdilution MIC), E. coli SHV-5; assay type: cell-based
Excerpt: as §4, §5

SHV-5 β-lactamase = target: T2, SHV-5 β-lactamase (Klebsiella pneumoniae, UniProt P0A3M1); test: β-lactamase enzyme inhibition assay (nitrocefin substrate), SHV-5; assay type: biochemical
T2 construct: expressed as native untagged proteins; made in house; host or cells: E. coli BL21(DE3)
Method: as §1, §2, §3

p99 AmpC β-lactamase = target: T3, p99 AmpC β-lactamase (Enterobacter cloacae, UniProt P05364); test: β-lactamase enzyme inhibition assay (nitrocefin substrate), P99 AmpC; assay type: biochemical
T3 construct: expressed as native untagged proteins; made in house; host or cells: E. coli BL21(DE3)
Method: as §1, §2, §3

[5] = test system: K. pneumoniae expressing the Class A carbapenemase KPC-2; test: microbe, parasite or virus in culture; assay type: cell-based
Excerpt: as §4, §5

OXA-23 β-lactamase = target: T4, OXA-23 β-lactamase (Acinetobacter baumannii, UniProt Q9L4P2); test: β-lactamase enzyme inhibition assay (nitrocefin substrate), OXA-23 crude extract; assay type: biochemical; conditions: nitrocefin 100 μM, 37° C., PBS pH 7.0; read-out: OXA-23 IC50
T4 construct: crude β-lactamase extracts were prepared from 20 ml overnight cultures; endogenous in cells; host or cells: Acinetobacter baumannii cells containing OXA-23 (crude freeze-thaw extract)
Method: For OXA-23 β-lactamase, crude β-lactamase extracts were prepared from 20 ml overnight cultures with shaking. Acenitobacter baumanni cells containing OXA-23 were further diluted 10-fold and grown to mid-log phase (OD at 600 nm, 0.5-0.8) in Mueller-Hinton II (MH-II) broth at 37° C. The cells were pelleted at 5000 g, washed and resuspended in 2 mL PBS pH 7.0. The β-lactamases were extracted by four cycles of freezing and thawing followed by centrifugation. β-lactamase activity in the extracts was measured with the chromogenic cephalosporin nitrocefin. The amount of protein in each β-lactamase preparation was determined by the bicinchoninic acid (BCA) assay.
as §2

KPC-2 β-lactamase = target: T5, KPC-2 β-lactamase (Klebsiella pneumoniae, UniProt Q9F663); test: β-lactamase enzyme inhibition assay (nitrocefin substrate), KPC-2; assay type: biochemical
T5 construct: expressed as native untagged proteins; made in house; host or cells: E. coli BL21(DE3)
Method: as §1, §2, §3

[6] = in presence of Ceftazidime 8 μg/ml (Examples 1-56)
[7] = nitrocefin 100 μM, 37° C., PBS pH 7.0, read-out: P99 AmpC IC50
[8] = in presence of Piperacillin 16 μg/ml (Examples 57-65)

T2 sequence (P0A3M1 22-286): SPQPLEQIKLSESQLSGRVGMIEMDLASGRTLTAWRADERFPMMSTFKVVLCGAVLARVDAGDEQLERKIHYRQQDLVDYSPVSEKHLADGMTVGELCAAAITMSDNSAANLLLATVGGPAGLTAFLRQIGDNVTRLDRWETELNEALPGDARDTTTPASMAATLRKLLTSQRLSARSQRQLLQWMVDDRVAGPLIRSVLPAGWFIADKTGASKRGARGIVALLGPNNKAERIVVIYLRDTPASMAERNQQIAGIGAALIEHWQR
T3 sequence (P05364 21-381): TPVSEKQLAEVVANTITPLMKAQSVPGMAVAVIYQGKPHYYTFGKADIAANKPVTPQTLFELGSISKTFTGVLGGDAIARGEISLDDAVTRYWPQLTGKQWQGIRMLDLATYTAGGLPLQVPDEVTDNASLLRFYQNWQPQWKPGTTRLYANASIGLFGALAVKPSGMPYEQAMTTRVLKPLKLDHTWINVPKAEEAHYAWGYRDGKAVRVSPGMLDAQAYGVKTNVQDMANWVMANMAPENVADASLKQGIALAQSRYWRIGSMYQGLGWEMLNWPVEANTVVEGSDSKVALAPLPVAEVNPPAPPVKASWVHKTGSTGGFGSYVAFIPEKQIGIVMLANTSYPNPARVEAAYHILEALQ
T4 sequence (Q9L4P2 18-273): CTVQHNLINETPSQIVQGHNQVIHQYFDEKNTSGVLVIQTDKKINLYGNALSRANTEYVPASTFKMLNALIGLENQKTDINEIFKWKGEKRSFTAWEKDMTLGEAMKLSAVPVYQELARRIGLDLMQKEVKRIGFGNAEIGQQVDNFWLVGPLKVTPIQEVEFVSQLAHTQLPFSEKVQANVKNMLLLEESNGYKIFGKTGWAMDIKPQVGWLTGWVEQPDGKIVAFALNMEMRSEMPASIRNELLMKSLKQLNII
T1 sequence (Q9EXV5 entry or part of it): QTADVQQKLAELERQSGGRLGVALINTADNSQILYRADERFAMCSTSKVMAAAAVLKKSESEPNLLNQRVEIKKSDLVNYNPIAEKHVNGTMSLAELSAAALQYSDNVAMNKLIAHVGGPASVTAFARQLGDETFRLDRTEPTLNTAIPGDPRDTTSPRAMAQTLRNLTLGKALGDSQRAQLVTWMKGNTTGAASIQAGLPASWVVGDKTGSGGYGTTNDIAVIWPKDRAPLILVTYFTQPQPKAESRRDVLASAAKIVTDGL
T5 sequence (Q9F663 25-293 limits assumed): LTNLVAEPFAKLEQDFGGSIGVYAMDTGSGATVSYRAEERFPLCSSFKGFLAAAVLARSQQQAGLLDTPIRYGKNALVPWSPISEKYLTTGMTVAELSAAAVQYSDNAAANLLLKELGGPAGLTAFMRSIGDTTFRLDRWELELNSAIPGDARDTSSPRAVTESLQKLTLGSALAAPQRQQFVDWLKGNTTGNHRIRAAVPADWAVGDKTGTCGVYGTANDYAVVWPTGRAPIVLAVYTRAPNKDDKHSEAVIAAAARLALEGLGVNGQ

Compound	IC50 (CTX-M15 β-lactamase)	MIC of example compound, E. cloacae P99+ [1, 6]	MIC of example compound, P. aeruginosa VIM-2 [2]	MIC of example compound, K. pneumoniae CTX-M-15 [3, 6]	MIC of example compound, E. coli SHV-5 [4, 6]	IC50 (SHV-5 β-lactamase)	IC50 (p99 AmpC β-lactamase; [7])	MIC of example compound, K. pneumoniae KPC-2 [5, 6]	IC50 (OXA-23 β-lactamase)	IC50 (KPC-2 β-lactamase)	IC50 (p99 AmpC β-lactamase)	MIC of example compound, E. cloacae P99+ [1, 8]	MIC of example compound, K. pneumoniae CTX-M-15 [3, 8]	MIC of example compound, E. coli SHV-5 [4, 8]	MIC of example compound, K. pneumoniae KPC-2 [5, 8]	IC50 (CTX-M15 β-lactamase; nitrocefin 100 μM, 37° C., PBS pH 7.0, read-out: CTXM-15 IC50)	IC50 (SHV-5 β-lactamase; nitrocefin 100 μM, 37° C., PBS pH 7.0, read-out: SHV-5 IC50)	IC50 (KPC-2 β-lactamase; nitrocefin 100 μM, 37° C., PBS pH 7.0, read-out: KPC-2 IC50)
Nc1ccc(CC(=O)N[C@@H](Cc2cccc(C(=O)O)c2O)B(O)O)cn1 [Example 46, (1R)-1-(6-amino-pyridin-3-yl-acetylamino)-2-(2-hydroxy-3-carboxyphenyl)ethyl-1-boronic acid formate]	5 nM	0.06 µg/mL	>8 µg/mL	0.03 µg/mL	0.06 µg/mL	0.7 nM	4 nM	0.007 µg/mL	209 nM	3 nM	–	–	–	–	–	–	–	–
CO/N=C(\C(=O)N[C@@H](Cc1cccc(C(=O)O)c1O)B(O)O)c1csc(NC(=O)CN)n1.Cl [Example 51, 3-(2(R)-{2-[2-(2-amino-acetylamino)-thiazol-4-yl]-2(Z)-methoxyimino-acetylamino}-2-borono-ethyl)-2-hydroxy-benzoic acid hydrochloride]	40 nM	>8 µg/mL	>8 µg/mL	>8 µg/mL	>8 µg/mL	15 nM	17 nM	>8 µg/mL	–	58 nM	–	–	–	–	–	–	–	–
CO/N=C(\C(=O)N[C@@H](Cc1cccc(C(=O)O)c1O)B(O)O)c1csc(NC(=O)[C@@H](N)CCCCN)n1 [Example 52, 3-(2(R)-{2-[2-(2(S),6-diamino-hexanoylamino)-thiazol-4-yl]-2(Z)-methoxyimino-acetylamino}-2-borono-ethyl)-2-hydroxy-benzoic acid hydrochloride]	55 nM	>8 µg/mL	>8 µg/mL	>8 µg/mL	>8 µg/mL	26 nM	–	2 µg/mL	–	89 nM	8 nM	–	–	–	–	–	–	–
O=C(Cc1ccc(CNc2ccccn2)cc1)N[C@@H](Cc1cccc(C(=O)O)c1O)B(O)O [Example 57, (1R)-1-{2-[4-(pyridin-2-ylaminomethyl)-phenyl]-acetylamino}-1-[(3-carboxy-2hydroxy)benzyl]-methylboronic acid formate]	4 nM	–	–	–	–	2 nM	3 nM	–	156 nM	13 nM	–	4 µg/mL	>8 µg/mL	1 µg/mL	4 µg/mL	–	–	–
O=C(O)CNCc1ccc(CC(=O)N[C@@H](Cc2cccc(C(=O)O)c2O)B(O)O)cc1 [Example 58, (1R)-1-(2-{4-[(1-Carboxymethyl-amino)-methyl]-phenyl}-acetylamino)1-[(3-carboxy-2-hydroxy)benzyl]-methylboronic acid formate]	4 nM	–	–	–	–	0.5 nM	6 nM	–	182 nM	13 nM	–	2 µg/mL	>8 µg/mL	0.5 µg/mL	0.5 µg/mL	–	–	–
(1R)-[4-(1-amino-cyclopropyl)]-benzoylamino]-(3-carboxy-2-hydroxy)benzyl-methylboronic acid formate [Example 22]	–	0.5 µg/mL	>8 µg/mL	2 µg/mL	8 µg/mL	–	34 nM	0.007 µg/mL	–	–	–	–	–	–	–	0.6 nM	> 1000 nM	5 nM
